Source: patent US10131652B2, “Pyrimidinyloxy benzene derivatives as herbicides” (E. I. DU PONT DE NEMOURS AND COMPANY, priority 2014, dated 2018)

Assays:
Test in all cases: Test F pre-/postemergence plant response
Type in all cases: in vivo
Details in all cases: scale 0 to 100
[1] = test system: arrowleaf sida (Sida rhombifolia)
Outline: (§1)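 In a greenhouse, compounds carried in a non-phytotoxic surfactant-containing solvent mixture were applied to soil at planting and to young 1- to 4-leaf plants. About two to three weeks (14 to 21 days) afterward, each species was compared with controls and rated visually from 0 to 100.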

[2] = test system: barnyardgrass (Echinochloa crus-galli)
Outline: as §1

[3] = test system: corn (Zea mays)
Outline: as §1

[4] = test system: dayflower (Virginia (VA) dayflower, Commelina virginica)
Outline: as §1

[5] = test system: fall panicum (Panicum dichotomiflorum)
Outline: as §1

[6] = test system: giant foxtail (Setaria faberii)
Outline: as §1

[7] = test system: green foxtail (Setaria viridis)
Outline: as §1

[8] = test system: johnsongrass (Sorghum halepense)
Outline: as §1

[9] = test system: large (Lg) crabgrass (Digitaria sanguinalis)
Outline: as §1

[10] = test system: morningglory (Ipomoea coccinea)
Outline: as §1

[11] = test system: palmer pigweed (Amaranthus palmeri)
Outline: as §1

[12] = test system: ragweed (common ragweed, Ambrosia elatior)
Outline: as §1

[13] = test system: sandbur (southern sandbur, Cenchrus echinatus)
Outline: as §1

[14] = test system: soybean (Glycine max)
Outline: as §1

[15] = test system: surinam grass (Brachiaria decumbens)
Outline: as §1

[16] = test system: waterhemp (common waterhemp, Amaranthus rudis)
Outline: as §1

## Fc1ccc(Oc2ncc(Cl)cn2)c(-c2cc(C(F)F)on2)c1Cl [Compound 96]
[1]; 16 g ai/ha Postemergence
  Plant response rating, Arrowleaf Sida: 70
[1]; 16 g ai/ha Preemergence
  Plant response rating, Arrowleaf Sida: 50
[1]; 31 g ai/ha Postemergence
  Plant response rating, Arrowleaf Sida: 80
[1]; 31 g ai/ha Preemergence
  Plant response rating, Arrowleaf Sida: 70
[1]; 62 g ai/ha Postemergence
  Plant response rating, Arrowleaf Sida: 90
[1]; 62 g ai/ha Preemergence
  Plant response rating, Arrowleaf Sida: 80
[1]; 125 g ai/ha Postemergence
  Plant response rating, Arrowleaf Sida: 95
[1]; 125 g ai/ha Preemergence
  Plant response rating, Arrowleaf Sida: 90
[2]; 16 g ai/ha Postemergence
  Plant response rating, Barnyardgrass: 0
[2]; 16 g ai/ha Preemergence
  Plant response rating, Barnyardgrass: 0
[2]; 31 g ai/ha Postemergence
  Plant response rating, Barnyardgrass: 10
[2]; 31 g ai/ha Preemergence
  Plant response rating, Barnyardgrass: 0
[2]; 62 g ai/ha Postemergence
  Plant response rating, Barnyardgrass: 20
[2]; 62 g ai/ha Preemergence
  Plant response rating, Barnyardgrass: 0
[2]; 125 g ai/ha Postemergence
  Plant response rating, Barnyardgrass: 20
[2]; 125 g ai/ha Preemergence
  Plant response rating, Barnyardgrass: 0
[3]; 16 g ai/ha Postemergence
  Plant response rating, Corn: 0
[3]; 16 g ai/ha Preemergence
  Plant response rating, Corn: 0
[3]; 31 g ai/ha Postemergence
  Plant response rating, Corn: 5
[3]; 31 g ai/ha Preemergence
  Plant response rating, Corn: 0
[3]; 62 g ai/ha Postemergence
  Plant response rating, Corn: 10
[3]; 62 g ai/ha Preemergence
  Plant response rating, Corn: 0
[3]; 125 g ai/ha Postemergence
  Plant response rating, Corn: 10
[3]; 125 g ai/ha Preemergence
  Plant response rating, Corn: 0
[4]; 16 g ai/ha Postemergence
  Plant response rating, Dayflower, VA: 20
[4]; 16 g ai/ha Preemergence
  Plant response rating, Dayflower, VA: 0
[4]; 31 g ai/ha Postemergence
  Plant response rating, Dayflower, VA: 40
[4]; 31 g ai/ha Preemergence
  Plant response rating, Dayflower, VA: 0
[4]; 62 g ai/ha Postemergence
  Plant response rating, Dayflower, VA: 70
[4]; 62 g ai/ha Preemergence
  Plant response rating, Dayflower, VA: 0
[4]; 125 g ai/ha Postemergence
  Plant response rating, Dayflower, VA: 70
[4]; 125 g ai/ha Preemergence
  Plant response rating, Dayflower, VA: 20
[5]; 16 g ai/ha Postemergence
  Plant response rating, Panicum, Fall: 0
[5]; 31 g ai/ha Postemergence
  Plant response rating, Panicum, Fall: 15
[5]; 31 g ai/ha Preemergence
  Plant response rating, Panicum, Fall: 40
[5]; 62 g ai/ha Postemergence
  Plant response rating, Panicum, Fall: 10
[5]; 125 g ai/ha Postemergence
  Plant response rating, Panicum, Fall: 25
[5]; 125 g ai/ha Preemergence
  Plant response rating, Panicum, Fall: 70
[5]; Preemergence
  Plant response rating, Panicum, Fall: 50
[6]; 16 g ai/ha Preemergence
  Plant response rating, Foxtail, Giant: 0
[6]; 31 g ai/ha Preemergence
  Plant response rating, Foxtail, Giant: 0
[6]; 62 g ai/ha Preemergence
  Plant response rating, Foxtail, Giant: 0
[6]; 125 g ai/ha Preemergence
  Plant response rating, Foxtail, Giant: 20
[7]; 16 g ai/ha Preemergence
  Plant response rating, Foxtail, Green: 25
[7]; 31 g ai/ha Preemergence
  Plant response rating, Foxtail, Green: 30
[7]; 125 g ai/ha Preemergence
  Plant response rating, Foxtail, Green: 25
[7]; Preemergence
  Plant response rating, Foxtail, Green: 35
[8]; 16 g ai/ha Preemergence
  Plant response rating, Johnsongrass: 20
[8]; 31 g ai/ha Preemergence
  Plant response rating, Johnsongrass: 60
[8]; 125 g ai/ha Preemergence
  Plant response rating, Johnsongrass: 98
[8]; Preemergence
  Plant response rating, Johnsongrass: 50
[9]; 16 g ai/ha Preemergence
  Plant response rating, Crabgrass, Large: 0
[9]; 31 g ai/ha Preemergence
  Plant response rating, Crabgrass, Large: 30
[9]; 62 g ai/ha Preemergence
  Plant response rating, Crabgrass, Large: 65
[9]; 125 g ai/ha Preemergence
  Plant response rating, Crabgrass, Large: 95
[10]; 16 g ai/ha Preemergence
  Plant response rating, Morningglory: 35
[10]; 31 g ai/ha Preemergence
  Plant response rating, Morningglory: 35
[10]; 125 g ai/ha Preemergence
  Plant response rating, Morningglory: 25
[10]; Preemergence
  Plant response rating, Morningglory: 35
[11]; 16 g ai/ha Postemergence
  Plant response rating, Pigweed, Palmer: 70
[11]; 16 g ai/ha Preemergence
  Plant response rating, Pigweed, Palmer: 80
[11]; 31 g ai/ha Postemergence
  Plant response rating, Pigweed, Palmer: 80
[11]; 31 g ai/ha Preemergence
  Plant response rating, Pigweed, Palmer: 98
[11]; 62 g ai/ha Postemergence
  Plant response rating, Pigweed, Palmer: 95
[11]; 125 g ai/ha Postemergence
  Plant response rating, Pigweed, Palmer: 90
[11]; 125 g ai/ha Preemergence
  Plant response rating, Pigweed, Palmer: 100
[11]; Preemergence
  Plant response rating, Pigweed, Palmer: 100
[12]; 16 g ai/ha Postemergence
  Plant response rating, Ragweed: 15
[12]; 16 g ai/ha Preemergence
  Plant response rating, Ragweed: 0
[12]; 31 g ai/ha Postemergence
  Plant response rating, Ragweed: 20
[12]; 31 g ai/ha Preemergence
  Plant response rating, Ragweed: 20
[12]; 62 g ai/ha Postemergence
  Plant response rating, Ragweed: 20
[12]; 125 g ai/ha Postemergence
  Plant response rating, Ragweed: 40
[12]; 125 g ai/ha Preemergence
  Plant response rating, Ragweed: 35
[12]; Preemergence
  Plant response rating, Ragweed: 50
[13]; 16 g ai/ha Postemergence
  Plant response rating, Sandbur: 0
[13]; 16 g ai/ha Preemergence
  Plant response rating, Sandbur: 0
[13]; 31 g ai/ha Postemergence
  Plant response rating, Sandbur: 0
[13]; 31 g ai/ha Preemergence
  Plant response rating, Sandbur: 10
[13]; 62 g ai/ha Postemergence
  Plant response rating, Sandbur: 0
[13]; 125 g ai/ha Postemergence
  Plant response rating, Sandbur: 0
[13]; 125 g ai/ha Preemergence
  Plant response rating, Sandbur: 30
[13]; Preemergence
  Plant response rating, Sandbur: 40
[14]; 16 g ai/ha Postemergence
  Plant response rating, Soybean: 40
[14]; 16 g ai/ha Preemergence
  Plant response rating, Soybean: 0
[14]; 31 g ai/ha Preemergence
  Plant response rating, Soybean: 0
[14]; 62 g ai/ha Postemergence
  Plant response rating, Soybean: 40
[14]; 125 g ai/ha Postemergence
  Plant response rating, Soybean: 80
[14]; 125 g ai/ha Preemergence
  Plant response rating, Soybean: 0
[14]; Preemergence
  Plant response rating, Soybean: 0
[15]; 16 g ai/ha Preemergence
  Plant response rating, Surinam Grass: 0
[15]; 31 g ai/ha Preemergence
  Plant response rating, Surinam Grass: 0
[15]; 125 g ai/ha Preemergence
  Plant response rating, Surinam Grass: 0
[15]; Preemergence
  Plant response rating, Surinam Grass: 0
[16]; 16 g ai/ha Postemergence
  Plant response rating, Waterhemp: 75
[16]; 16 g ai/ha Preemergence
  Plant response rating, Waterhemp: 40
[16]; 31 g ai/ha Postemergence
  Plant response rating, Waterhemp: 90
[16]; 31 g ai/ha Preemergence
  Plant response rating, Waterhemp: 100
[16]; 62 g ai/ha Postemergence
  Plant response rating, Waterhemp: 100
[16]; 125 g ai/ha Postemergence
  Plant response rating, Waterhemp: 95
[16]; 125 g ai/ha Preemergence
  Plant response rating, Waterhemp: 100
[16]; Preemergence
  Plant response rating, Waterhemp: 100
